Experimental data published in patent US20070173787A1, “Thin-film nitinol based drug eluting stent” (priority 2005, published 2007).

Key:
[1] = tested on: human coronary artery smooth muscle cells; assay: Anti-proliferative activity in synchronized cultured human coronary artery smooth muscle cells stimulated with two percent fetal bovine serum; assay type: cell-based
Excerpt: The multiple curves represent various concentrations of topotecan ranging from zero to three hundred nanomolar concentrations.
The multiple curves represent various concentrations of etoposide ranging from zero to eight hundred nanomolar concentrations.
The multiple curves represent various concentrations of Panzem® ranging from zero to 100 micromolar concentrations.

[2] = tested on: human coronary artery smooth muscle cell; settings: concentrations up to 30,000.00 nanomolar, FIG. 69
Excerpt: In vitro cytotoxicity tests or assays may be utilized to determine if drugs, agents and/or compounds are potentially toxic and the level of toxicity. Essentially, in vitro cytotoxicity assays determine acute necrotic effects by a drug causing direct cellular damage. The idea behind these assays is that toxic chemicals affect basic functions of cells which are common to all cells. […] There are a number of different assays that may be utilized. In the present invention, the cytotoxicity assay utilized is based upon the measurement of cellular metabolic activity. A reduction in metabolic activity is an indication of cellular damage. Tests that can measure metabolic function measure cellular ATP levels or mitochondrial activity via MTS metabolism. FIG. 69 is a graphical representation of the results of an MTS assay of Panzem®.

[3] = tested on: platelet deposition and thrombus formation on the stent surface; assay: In vitro bovine blood loop model (In 111 labeled platelets); settings: FIG. 83
Excerpt: The anti-thrombotic efficacy of the above-described three configurations is illustrated in FIG. 83. FIG. 83 illustrates the anti-thrombotic properties of the sirolimus/cilostazol combination coatings described above in an in vitro bovine blood loop model. In the in vitro bovine blood loop model, fresh bovine blood is heparinized to adjust for acute clotting time (ACT) of about two hundred (200) seconds. The platelet content in the blood is labeled through the use of Indium 111. In the study, a stent is deployed in a silicone tube, which is part of a closed loop system for blood circulation. The heparinzed blood is circulated through the closed loop system by means of a circulating pump. Blood clots and thrombus builds up on a stent surface over time and reduces the flow rate of blood through the stented loop. […] The control drug eluting stent is the Cypher® sirolimus eluting coronary stent available from Cordis Corporation. Bar 8304 is a stent coated with heparin and is available from Cordis Corporation under the […]® on the Bx Velocity® coronary stent trademark. Bar 8306 is a stent configured as set forth with respect to the architecture illustrated in FIG. 76. Bar 8308 is a stent configured as set forth with respect to the architecture illustrated in FIG. 80. Bar 8310 is a stent configured as set forth with respect to the architecture illustrated in FIG. 82.

[4] = In vivo release kinetics from stent coatings in porcine pharmacokinetics studies; settings: after eight (8) days of implantation; single layer sirolimus/cilostazol EVA/BMA coating with 100 μg BMA overcoat (FIG. 86), FIG. 84
Excerpt: The topcoat is two hundred micro grams.
The basecoat is applied to Bx Velocity® stents and implanted into Yorkshire pigs.
Another critical parameter for the performance of the thrombus resistance of a device coated with cilostazol is the duration of the drug release from the coating. This is of particular significance in the two weeks after device implantation. […] The purpose of the porcine PK study is to assess the local pharmacokinetics of a drug eluting stent at a given implantation time. Normally three stents are implanted in three different coronary arteries in a pig for a given time point and then retrieved for total drug recovery analysis. The stents are retrieved at predetermined time points; namely, 1, 3 and 8 days. The stents are extracted and the total amount of drug remaining on the stents is determined by analysis utilizing HPLC (high performance liquid chromatography) for total drug amount. The difference between the original amount of drug on the stent and the amount of drug retrieved at a given time represents the amount of drug released in that period. The continuous release of drug into surrounding arterial tissue is what prevents the neointimal growth and restenosis in the coronary artery. A normal plot represents the percentage of total drug released (%, y-axis) vs. time of implantation (day, x-axis). […] In this exemplary configuration, the stent 8600 is coated with two layers. The first layer 8602 comprises a combination of sirolimus, cilostazol and a copolymer matrix of EVA/BMA. The second layer or diffusion overcoat 8604 comprises only BMA. More specifically, in this embodiment, the first layer 8602 comprises a combination of sirolimus and cilastazol that is forty-five (45) percent by weight of the total weight of the first layer 8602 and an EVA/BMA copolymer matrix that is fifty-five (55) percent by weight of the total weight of the first layer 8602. The diffusion overcoat comprises one hundred (100 μg) micrograms of BMA.
Pigs are an established animal species for intravascular stent studies and accepted for such studies by the appropriate regulatory agencies. This in vivo study utilized male pigs of the species Sus Scrofa and strain Yoorkshire pigs. S.M.A.R.T.™ stents, available from Cordis Corporation, were placed into the iliac and femoral arteries, PALMAZ® GENESIS™ stents, available from Cordis Corporation, were placed in the renal arteries and CYPHER™ stents, available from Cordis Corporation, were placed in the coronary arteries.

Structure (SMILES) | anti-proliferative activity ([1]; FIG. 66) | effect of addition on the anti-proliferative rapamycin dose response curve ([1]; topotecan to 300 nanomolar (FIG. 64), etoposide to eight hundred nanomolar (FIG. 65), Panzem to 100 micromolar (FIG. 68)) | cytotoxicity, MTS assay (cell survival) [2] | thrombus formation [3] | drug remaining in the drug coating [4] [%]
COc1cc2c(cc1O)CC[C@@H]1[C@@H]2CC[C@]2(C)[C@@H](O)CC[C@@H]12 [Panzem®, 2-methoxyestradiol] | extremely effective inhibitor of human coronary artery smooth muscle cell proliferation in vitro | increases the percent of inhibition of rapamycin alone | do not reduce human coronary artery smooth muscle cell survival |  | 
O=C1CCc2cc(OCCCCc3nnnn3C3CCCCC3)ccc2N1 [cilostazol, 6[4-(1-cyclohexyl-1H-tetrazol-5-yl)-butoxy]-3,4-dihydro-2-(1H)-quinolinone] |  |  |  | significantly reduces thrombus formation | ~80
